From patent US6737383B1, “Herbicidal oxadiazolidines” (priority 1999, dated 2004)

Columns and labels:
surinam grass [1] = assay: Test D surinam grass; format: in vivo, Brachiaria decumbens; settings: Postemergence, 0 to 100 scale
bermuda-grass = assay: Test D bermudagrass; format: in vivo, Cynodon dactylon; settings: Postemergence, 0 to 100 scale
itchgrass = assay: Test D itchgrass; format: in vivo, Rottboellia exaltata; settings: Postemergence, 0 to 100 scale
goosegrass = assay: Test D goosegrass; format: in vivo, Eleusine indica; settings: Postemergence, 0 to 100 scale
pitted morningglory = assay: Test D pitted morningglory; format: in vivo, Ipomoea lacunosa; settings: Postemergence, 0 to 100 scale
dallisgrass = assay: Test D dallisgrass; format: in vivo, Paspalum dilatatum; settings: Preemergence, 0 to 100 scale
Text: (§1) Seeds, tubers, or plant parts of Alexandergrass (Brachiaria plantaginea), bermuda-grass (Cynodon dactylon), common pursiane (Portulaca oleracea), common ragweed (Ambrosia elatior), common groundsel (Senecio vulgaris), dallisgrass (Paspalum dilatatum), goosegrass (Eleusine indica), guineagrass (Panicum maximum), itchgrass (Rottboellia exaltata), Johnson grass (Sorghum halepense), large crabgrass (Digitaria sanguinalis), pitted morningglory (Ipomoea lacunosa), purple nutsedge (Cyperus rotundus), sandbur (Cenchrus echinatus), sourgrass (Trichachne insularis), Spanishneedles (Bidens bipinnata), surinam grass (Brachiaria decumbens) and tall mallow (Malva sylvestris) were planted into greenhouse pots of flats containing greenhouse planting medium. Plant species were grown in separate pots or individual compartments. Preemergence applications were made within one day of planting the seed or plant part.
(§2) Test chemicals were formulated in a non-phytotoxic solvent mixture which included a surfactant and applied preemergence to the surface of the pot containing seeds in a sandy loam soil. Untreated control pots and treated pots were placed in the greenhouse for growth and visually evaluated for injury 14 to 21 days after herbicide application. Plant response ratings, summarized in Table C, are based on a 0 to 100 scale where 0 is no injury and 100 is complete control. A dash (−) response means no test result.

tall mallow = assay: Test D tall mallow; format: in vivo, Malva sylvestris; settings: Preemergence, 0 to 100 scale
Text: as §1, §2

surinam grass [2] = assay: Test D surinam grass; format: in vivo, Brachiaria decumbens; settings: Preemergence, 0 to 100 scale
Text: as §1, §2

Alexandergrass = assay: Test D Alexandergrass; format: in vivo, Brachiaria plantaginea; settings: Preemergence, 0 to 100 scale
Text: as §1, §2

windgrass = assay: Test E windgrass; format: in vivo, Apera spica-venti; settings: Postemergence, Rate 62 g/ha; 0 to 100 scale
Experimental: Compounds evaluated in this test were formulated in a non-phytotoxic solvent mixture which included a surfactant and applied to plants that were in the 1- to 4-leaf stage (postemergence application). A mixture of sandy loam soil and greenhouse potting mix in a 60:40 ratio was used for the postemergence test.
Plantings of these crops and weed species were adjusted to produce plants of appropriate size for the postemergence test. All plant species were grown using normal greenhouse practices. […]
Treated plants and untreated controls were maintained in a greenhouse for approximately 21 to 28 days, after which all treated plants were compared to untreated controls and visually evaluated. […]

large crabgrass = assay: Test C postemergence large crabgrass; format: in vivo, Digitaria sanguinalis; settings: 0 to 100 scale, 0 no effect, 100 complete control
How it was run: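 Scores (0 = no effect, 100 = complete control) come from visual comparison with untreated controls after about 14–21 days. Spray formulation was a non-phytotoxic solvent mixture including surfactant; plants grew in a 60:40 sandy loam–potting mix blend.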

soybean = assay: Test C postemergence soybean; format: in vivo, Glycine max; settings: 0 to 100 scale, 0 no effect, 100 complete control
Experimental: Compounds evaluated in this test were formulated in a non-phytotoxic solvent mixture which included a surfactant and applied to plants that were grown for various periods of time before treatment (postemergence application). A mixture of sandy loam soil and greenhouse potting mix in a 60:40 ratio was used for the postemergence test.
Plantings of these crops and weed species were adjusted to produce plants of appropriate size for the postemergence test. All plant species were grown using normal greenhouse practices. Crop and weed species include arrowleaf sida (Sida rhombifolia), barnyardgrass (Echinochloa crus-galli), cocklebur (Xanthium strumarium), common ragweed (Ambrosia elatior), corn (Zea mays), cotton (Gossypium hirsutum), eastern black nightshade (Solanum ptycanthum), fall panicum (Panicum dichotomiflorum), field bindweed (Convolvulus arvensis), giant foxtail (Setaria faberii), hairy beggarticks (Bidens pilosa), ivyleaf morningglory (Ipomoea hederacea), johnsongrass (Sorghum halepense), ladysthumb smartweed (Polygonum persicaria), lambsquarters (Chenopodium album), large crabgrass (Digitaria sanguinalis), purple nutsedge (Cyperus rotundus), redroot pigweed (Amaranthus retroflexus), soybean (Glycine max), surinam grass (Brachiaria decumbens), velvetleaf (Abutilon theophrasti) and wild poinsettia (Euphorbia heterophylla).
Treated plants and untreated controls were maintained in a greenhouse for approximately 14, to 21 days, after which all treated plants were compared to untreated controls and visually evaluated. Plant response ratings, summarized in Table C, were based upon a 0 to 100 scale where 0 was no effect and 100 was complete control. A dash response (−) means no test result.

[3] = Rate 16 g/ha, 0 no injury, 100 complete control
[4] = Rate 32 g/ha, 0 no injury, 100 complete control
[5] = Rate 64 g/ha, 0 no injury, 100 complete control
[6] = Rate 125 g/ha, 0 no injury, 100 complete control

Row | SMILES | Plant response rating, Surinam grass (surinam grass [1]; [3]) | Plant response rating, Surinam grass (surinam grass [1]; [4]) | Surinam grass plant response rating (surinam grass [1]; [5]) | Surinam grass plant response rating (surinam grass [1]; [6]) | Plant response rating, Surinam grass (surinam grass [1]; Rate 250 g/ha) | Plant response rating, Bermudagrass (bermuda-grass; [3]) | Plant response rating, Bermudagrass (bermuda-grass; [4]) | Plant response rating, Bermudagrass (bermuda-grass; [5]) | Plant response rating, Bermudagrass (bermuda-grass; [6]) | Plant response rating, Bermudagrass (bermuda-grass; Rate 250 g/ha) | Plant response rating, Itchgrass (itchgrass; [3]) | Plant response rating, Itchgrass (itchgrass; [4]) | Plant response rating, Itchgrass (itchgrass; [5]) | Plant response rating, Itchgrass (itchgrass; [6]) | Plant response rating, Itchgrass (itchgrass; Rate 250 g/ha) | Plant response rating, Goosegrass (goosegrass; [3]) | Plant response rating, Goosegrass (goosegrass; [4]) | Plant response rating, Goosegrass (goosegrass; [5]) | Plant response rating, Goosegrass (goosegrass; [6]) | Plant response rating, Goosegrass (goosegrass; Rate 250 g/ha) | other results
1 | CC(C)N(C(=O)n1oc(=O)n(C2(C)CC2)c1=O)c1ccccc1 [Compound 360] | 0 | 0 | 100 | 90 | 100 | 0 | 100 | 100 | 100 | 100 | 0 | 0 | 0 | 20 | 30 | 20 | 100 | 100 | 100 | 100 | Plant response rating, P. morninglory (pitted morningglory; [3]): 0; Plant response rating, P. morninglory (pitted morningglory; [4]): 0; Plant response rating, P. morninglory (pitted morningglory; [5]): 0; Plant response rating, P. morninglory (pitted morningglory; [6]): 0; Plant response rating, P. morninglory (pitted morningglory; Rate 250 g/ha): 10
2 | CC(C)N(C(=O)n1oc(=O)n(C2CC2)c1=O)c1ccccc1 [Compound 243] | 0 | 20 | 90 | 100 | 100 | 20 | 60 | 100 | 100 | 100 | 0 | 0 | 0 | 10 | 100 | 70 | 80 | 100 | 100 | 100 | Plant response rating, P. morninglory (pitted morningglory; [3]): 0; Plant response rating, P. morninglory (pitted morningglory; [4]): 0; Plant response rating, P. morninglory (pitted morningglory; [5]): 0; Plant response rating, P. morninglory (pitted morningglory; [6]): 0; Plant response rating, P. morninglory (pitted morningglory; Rate 250 g/ha): 40
3 | Cc1cccc(C)c1-n1c(=O)on(C(=O)N(c2ccc(F)cc2F)C(C)C)c1=O [Compound 28] |  |  |  |  |  |  |  |  |  |  |  |  |  |  |  |  |  |  |  |  | Plant response rating, Dallisgrass (dallisgrass; [4]): 30; Plant response rating, Dallisgrass (dallisgrass; [5]): 75; Plant response rating, Dallisgrass (dallisgrass; [6]): 85; Plant response rating, Dallisgrass (dallisgrass; Rate 250 g/ha): 100; Plant response rating, Tall Mallow (tall mallow; [4]): 0; Tall Mallow plant response rating (tall mallow; [5]): 0; Tall Mallow plant response rating (tall mallow; [6]): 0; Plant response rating, Tall Mallow (tall mallow; Rate 250 g/ha): 0; Plant response rating, Surinam grass (surinam grass [2]; [4]): 0; Surinam grass plant response rating (surinam grass [2]; [5]): 0; Surinam grass plant response rating (surinam grass [2]; [6]): 65; Plant response rating, Surinam grass (surinam grass [2]; Rate 250 g/ha): 75; Plant response rating, Alexandergrass (Alexandergrass; [4]): 0; Plant response rating, Alexandergrass (Alexandergrass; [5]): 0; Plant response rating, Alexandergrass (Alexandergrass; [6]): 60; Plant response rating, Alexandergrass (Alexandergrass; Rate 250 g/ha): 75
4 | COCC(C)n1c(=O)on(C(=O)N(c2ccc(F)cc2F)C(C)C)c1=O (centres unmarked) [Compound 352] | 0 | 0 | 30 | 70 | 100 | 0 | 80 | 100 | 100 | 100 | 0 | 0 | 0 | 20 | 60 | 0 | 90 | 100 | 100 | 100 | Plant response rating, P. morninglory (pitted morningglory; [3]): 0; Plant response rating, P. morninglory (pitted morningglory; [4]): 0; Plant response rating, P. morninglory (pitted morningglory; [5]): 0; Plant response rating, P. morninglory (pitted morningglory; [6]): 0; Plant response rating, P. morninglory (pitted morningglory; Rate 250 g/ha): 0
5 | C=C(C)Cn1c(=O)on(C(=O)N(c2ccc(F)cc2)C(C)C)c1=O [Compound 139] |  |  |  |  |  |  |  |  |  |  |  |  |  |  |  |  |  |  |  |  | Plant response rating, Dallisgrass (dallisgrass; [5]): 90; Tall Mallow plant response rating (tall mallow; [5]): 20; Surinam grass plant response rating (surinam grass [2]; [5]): 20; Plant response rating, Alexandergrass (Alexandergrass; [5]): 60
6 | CCn1c(=O)on(C(=O)N(c2ccc(F)cc2F)C(C)C)c1=O [Compound 116] |  |  |  |  |  |  |  |  |  |  |  |  |  |  |  |  |  |  |  |  | Plant response rating, Windgrass (windgrass): 70; Plant response rating Large crabgrass (large crabgrass; Rate 140 g/ha): 0; Plant response rating Large crabgrass (large crabgrass; Rate 280 g/ha): 0; Plant response rating Large crabgrass (large crabgrass; Rate 560 g/ha): 30; Plant response rating Large crabgrass (large crabgrass; Rate 1120 g/ha): 90; Plant response rating, Soybean (soybean; Rate 140 g/ha): 10; Plant response rating, Soybean (soybean; Rate 280 g/ha): 10; Plant response rating, Soybean (soybean; Rate 560 g/ha): 30; Plant response rating, Soybean (soybean; Rate 1120 g/ha): 40
